Read-outs that look alike come from different tables or passages of the source.
Key:
GRK2 = molecular target: T1, GRK2 (Homo sapiens, UniProt P25098); test: ADPGlo GRK2 Inhibition Assay (Example 8); assay type: biochemical
T1 construct: purchased SignalChem A14-10G
T1 sequence (P25098 1-689): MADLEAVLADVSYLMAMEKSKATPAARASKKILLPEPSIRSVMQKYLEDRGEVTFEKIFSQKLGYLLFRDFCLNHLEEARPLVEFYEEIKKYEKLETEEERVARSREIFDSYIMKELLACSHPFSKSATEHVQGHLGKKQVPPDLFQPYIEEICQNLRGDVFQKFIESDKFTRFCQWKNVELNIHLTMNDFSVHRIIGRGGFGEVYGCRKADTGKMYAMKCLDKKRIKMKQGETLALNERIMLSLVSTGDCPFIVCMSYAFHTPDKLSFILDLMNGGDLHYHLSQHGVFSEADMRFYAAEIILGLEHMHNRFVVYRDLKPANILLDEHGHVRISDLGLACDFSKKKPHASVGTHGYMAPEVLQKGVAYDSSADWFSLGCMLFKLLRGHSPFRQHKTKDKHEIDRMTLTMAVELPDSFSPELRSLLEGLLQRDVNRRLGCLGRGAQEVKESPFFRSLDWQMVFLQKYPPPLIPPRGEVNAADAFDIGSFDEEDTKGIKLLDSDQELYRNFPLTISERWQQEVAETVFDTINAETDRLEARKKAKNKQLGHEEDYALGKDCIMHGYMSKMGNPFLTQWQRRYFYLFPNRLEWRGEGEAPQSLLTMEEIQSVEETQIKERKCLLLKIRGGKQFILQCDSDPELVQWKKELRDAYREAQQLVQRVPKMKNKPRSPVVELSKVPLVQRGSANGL
Protocol: HTS was performed using 1 μM compound.
Compounds were dissolved in 100% DMSO, serially diluted tree-fold from 100 μM concentration to 46 nM and transferred (50 nL) into assay ready plate.
Materials: GRK2 was purchased from SignalChem (Cat #A14-10G, Lot #X^645-3). Substrate GRKtide was from SignalChem (Cat #G46-58, Lot #R339-6). ADP-Glo Kinase Assay from Promega (Cat #V9102). Assay buffer consisted of 25 mMv HEPES (pH7.5), 10 mMv MgCl2, 0.01% Tween-20, 1 mM DDT. 384-well white plates were from Greiner […] (Item #784075).
HTS protocol: Take 384 well plate with 50 nL of compound in columns 3-22/DMSO solution 1-2,23-24. Add 2.5 μL assay buffer to columns 23 and 24 using Thermo Scientific Multidrop Combi Dispenser. Add 2.5 μL of 2× enzyme solution (15 nM in 1× assay buffer) using Thermo Scientific Multidrop Combi Reagent Dispenser to all columns except of 23 and 24. Incubate for 15 minutes. Fill plate with 2.5 μL of 2× substrate mix (20 μM ATP and 0.6 mg/nt GRKtide in Ix assay buffer) using Thermo Scientific Multidrop Combi Reagent Dispenser. Spin 15 seconds at 1000 rpm and incubate for 180 min at room temperature. Add 5 μL ADP-Glo reagent to all the wells. Spin 15 seconds at 1000 rpm and incubate for 40 min at room temperature. Add 10 μL Detection solution to all the wells. Incubate for 30 min at room temperature. Read plate in Luminescent modeon BMG PheraStar FSX (gain=3600).
Data Analysis: Data were analyzed in GraphPad Prism 8.0.2. Each HTS plate contains compounds in columns 3-22, controls (enzyme, no compound) in columns 1 and 2, and blanks (no enzyme) in columns 23 and 24. HTS percent inhibition was calculated for each compound from the signal in luminescence units and the mean of the plate controls and the mean of the plate blanks using the following equation: % Inhibition=100*(1−((signal-blank mean)/(control mean-blank mean))). At the final stage of data processing, we obtain dose-response curves, tables and SDF-files with the results of screening for each substance.

[1] = system: PAXF1657 control empty vector cell line; test: 7-day proliferation assay, PAXF1657 control empty vector cell line (Example 9); assay type: cell-based; conditions: 168 h; Cell Line: PAXF1657 empty vector (EV) cell line; 7-day; read-out: C: 7-day proliferation assay: IC50 GeoMean
Protocol: In order to identify compounds specific for GRK2, we generated two isogenic cell line pairs of the pancreatic cancer cell line PAXF1657, a pair of cells stably overexpressing GRK2 cDNA or the control empty vector and a cell line pair of PAXF1657 GRK2 knockout clonal cells versus non-targeting control clonal cells.
Proliferation Assay: Cellular anti-proliferative activity of compounds was assessed by using the pancreatic cancer cell line, PAXF1657, stably overexpressing GRK2 cDNA or the control empty vector, as well as the parental urinary bladder cancer cell line, 5637. In addition, we also took advantage of GRK2 knockout cell lines that were generated via CRISPR. Cell lines were seeded into tissue culture treated, white-walled, 96-well plates at a density of 500 cells/well in RPMI1640 media supplemented with 10% H.I. FBS and penicillin/streptomycin. Plates were incubated overnight at 37° C., 5% CO2 to allow cells to adhere to the wells. GRK2 inhibitors were added to the cells using a 10-point dilution series with a final concentration ranging from 30 μM-0.0002 μM in 0.3% DMSO. At the time of compound addition, a set of plates, that were not treated with compounds, were collected and cell viability was measured using CellTiter-Glo (Promega). CellTiter-Glo reagent was added to the designed plates and luminescence was measuring using a Biotek Synergy plate reader. The compound treated cells were incubated for 3 days at 37° C., 5% CO2. The media was then aspirated from each well and replaced with fresh media containing GRK2 inhibitors. The compound treated cells were then incubated for an additional 4 days at 37° C., 5% CO2. Cell viability was assessed and at end of the 7-day compound treatment by CellTiterGlo.

[2] = Enzyme Assay A, ADPGlo (Example 8), read-out: A: Enzymatic GRK2: IC50 (nM) (Example 8)
[3] = ADPGlo GRK2 enzyme assay, read-out: A: Enzymatic GRK2: IC50 (nM) (Example 8)
[4] = 7.5 nM GRK2, 10 μM ATP, ADP-Glo, read-out: GRK2 IC50 (nM) (Example 8)

Structure (SMILES) | IC50 [1] | other results
CC(NC(=O)c1cccc(NCc2nnc(-c3ccncn3)n2C)c1)c1nnc2ccccn12 (centres unmarked) |  | IC50 (GRK2; [2]): 260 nM
Cc1cc2c(cc1CNC(=O)c1cccc(NCc3nnc(-c4ccncc4F)n3C)c1)OCCO2 |  | IC50 (GRK2; [3]): 8 nM
Cn1c(CNc2cccc(C(=O)NCc3ccc(C#N)cc3)c2)nnc1-c1ccncn1 [compound 54] |  | IC50 (GRK2; [4]): 6.3 nM
Cn1c(CNc2cccc(C(=O)NCc3ccccc3S(=O)(=O)N3CCOCC3)c2)nnc1-c1ccncn1 |  | IC50 (GRK2; [3]): 52.8 nM
Cn1c(CNc2cccc(C(=O)N[C@@H](CF)c3ccccc3)c2)nnc1-c1ccncn1 |  | IC50 (GRK2; [2]): 97 nM
CC(Cc1ccccn1)NC(=O)c1cccc(NCc2nnc(-c3ccncn3)n2C)c1 (centres unmarked) |  | IC50 (GRK2; [3]): 290 nM
Cn1c(CNc2cccc(C(=O)NCc3ccc(-n4nccn4)cc3)c2)nnc1-c1ccncn1 [compound 42] |  | IC50 (GRK2; [4]): 2.1 nM
CCn1ccnc1C(C)NC(=O)c1cccc(NCc2nnc(-c3ccncn3)n2C)c1 (centres unmarked) |  | IC50 (GRK2; [3]): 189 nM
Cn1c(CNc2cccc(C(=O)NCc3ccc(O)c(F)c3)c2)nnc1-c1ccncn1 |  | IC50 (GRK2; [3]): 118 nM
Cn1c(CNc2cccc(C(=O)NCc3nccnc3O)c2)nnc1-c1ccncn1 |  | IC50 (GRK2; [3]): 728 nM
Cn1c(CNc2cccc(C(=O)NCc3ccccc3CS(=O)(=O)N3CCCC3)c2)nnc1-c1ccncn1 |  | IC50 (GRK2; [3]): 107 nM
CN(C)c1cccnc1CNC(=O)c1cccc(NCc2nnc(-c3ccncn3)n2C)c1 |  | IC50 (GRK2; [3]): 120 nM
CC(C)C(NC(=O)c1cccc(NCc2nnc(-c3ccncn3)n2C)c1)c1nccn1C (centres unmarked) |  | IC50 (GRK2; [3]): 152 nM
Cn1ccnc1[C@@H](NC(=O)c1cccc(NCc2nnc(-c3ccncc3)[nH]2)c1)C1CC1 [compound 34] |  | IC50 (GRK2; [4]): 10 nM
COc1ccc(CNC(=O)c2cccc(NCc3nnc(-c4ccncn4)n3C)c2)cc1 |  | IC50 (GRK2; [3]): 913 nM
Cn1c(CNc2cccc(C(=O)NCc3nc4ccccc4o3)c2)nnc1-c1ccncn1 | > 10000 nM | 
[2H]C([2H])(Nc1cccc(C(=O)N[C@@H]2CCOc3cccnc32)c1)c1nnc(-c2ccncn2)n1C | 274 nM | 
Cn1c(CNc2cccc(C(=O)NCc3cncc(F)c3)c2)nnc1-c1ccncn1 | > 10000 nM | 
COCC(C)(NC(=O)c1cccc(NCc2nnc(-c3ccncn3)n2C)c1)c1ccccc1 (centres unmarked) | 880 nM | 
Cn1c(CNc2cccc(C(=O)NCc3cc(C(C)(C)C)ccn3)c2)nnc1-c1ccncn1 | 2670 nM | 

Structure (SMILES) | IC50 [1] | other results
COc1cnccc1CNC(=O)c1cccc(NCc2nnc(-c3ccncn3)n2C)c1 | > 10000 nM | 
CN1CCC(CNC(=O)c2cccc(NCc3nnc(-c4ccncc4)[nH]3)c2)C1=O (centres unmarked) | > 10000 nM | 
COc1ccc(CNC(=O)c2cccc(NCc3nnc(-c4ccncn4)n3C)c2)nc1 | > 10000 nM | 
Cn1c(CNc2cccc(C(=O)NCc3cncs3)c2)nnc1-c1ccncn1 | > 10000 nM | 
C[C@H](NC(=O)c1cccc(NCc2nnc(-c3ccncn3)n2C)c1)c1cnccn1 | 1510 nM | 
CC(NC(=O)c1cccc(NCc2nnc(-c3ccncn3)n2C)c1)c1ccon1 (centres unmarked) | > 10000 nM | 
C[C@H](NC(=O)c1cccc(NCc2nnc(-c3ccncn3)n2C)c1)c1ccnn1C | > 10000 nM | 
Cn1c(CNc2cccc(C(=O)NC3(c4nccs4)CCCC3)c2)nnc1-c1ccncn1 | > 10000 nM | 
Cn1c(CNc2cccc(C(=O)NC3(c4ccccn4)CC3)c2)nnc1-c1ccncn1 | 2030 nM | 
Cn1c(CNc2cccc(C(=O)NCc3cc4n(n3)CCCC4)c2)nnc1-c1ccncn1 | 2210 nM | 
COc1ccccc1C1(NC(=O)c2cccc(NCc3nnc(-c4ccncn4)n3C)c2)CC1 | > 10000 nM | 
CCOc1ncccc1CNC(=O)c1cccc(NCc2nnc(-c3ccncn3)n2C)c1 | 3610 nM | 
O=C(NCc1nnc2n1CCCC2C(F)(F)F)c1cccc(NCc2nnc(-c3ccncc3)[nH]2)c1 (centres unmarked) | > 10000 nM | 
Cc1ccnc(C(C)NC(=O)c2cccc(NCc3nnc(-c4ccncn4)n3C)c2)n1 (centres unmarked) | > 10000 nM | 
CC(NC(=O)c1cccc(NCc2nnc(-c3ccncc3)[nH]2)c1)c1ncn(C)n1 (centres unmarked) | > 10000 nM | 
Cn1c(CNc2cccc(C(=O)NC3(c4cccnc4)CCC3)c2)nnc1-c1ccncn1 | > 10000 nM | 
Cn1c(CNc2cccc(C(=O)NCc3ccncc3)c2)nnc1-c1ccncn1 | > 10000 nM | 
CC(NC(=O)c1cccc(NCc2nnc(-c3ccncc3)[nH]2)c1)c1nncn1C (centres unmarked) | > 10000 nM | 
O=C(NCC1(F)CCC1)c1cccc(NCc2nnc(-c3ccncc3)[nH]2)c1 | 3220 nM | 
CCn1nccc1CNC(=O)c1cccc(NCc2nnc(-c3ccncc3)[nH]2)c1 | 739 nM | 

Structure (SMILES) | IC50 [1] | other results
Cn1c(CNc2cccc(C(=O)NCc3ccn(C4CCCC4)n3)c2)nnc1-c1ccncn1 | > 10000 nM | 
Cn1c(CNc2cccc(C(=O)NCc3ccc(-n4cncn4)cc3)c2)nnc1-c1ccncn1 | > 10000 nM | 
Cn1c(CNc2cccc(C(=O)NCc3cccc(C(F)(F)F)n3)c2)nnc1-c1ccncn1 | 1860 nM | 
Cc1nc2n(n1)CCCC2NC(=O)c1cccc(NCc2nnc(-c3ccncn3)n2C)c1 (centres unmarked) | > 10000 nM | 
COCCn1nc(C)c(CNC(=O)c2cccc(NCc3nnc(-c4ccncc4)[nH]3)c2)c1C | > 10000 nM | 
CCn1nnc(C)c1CNC(=O)c1cccc(NCc2nnc(-c3ccncc3)[nH]2)c1 | 651 nM | 
CCn1ncnc1CNC(=O)c1cccc(NCc2nnc(-c3ccncc3)[nH]2)c1 | > 10000 nM | 
Cn1c(CNc2cccc(C(=O)NCc3ccccn3)c2)nnc1-c1ccncn1 | > 10000 nM | 
CCn1nccc1C(C)NC(=O)c1cccc(NCc2nnc(-c3ccncc3)[nH]2)c1 (centres unmarked) | > 10000 nM | 
COc1ccccc1[C@@H](NC(=O)c1cccc(NCc2nnc(-c3ccncn3)n2C)c1)c1nccn1C | 78200 nM | 
Cn1c(CNc2cccc(C(=O)NCc3ccc(Cn4cncn4)cc3)c2)nnc1-c1ccncn1 | > 10000 nM | 
Cc1cc(CNC(=O)c2cccc(NCc3nnc(-c4ccncc4)[nH]3)c2)ccn1 | > 10000 nM | 
O=C(NCc1nnc2n1CCCCC2)c1cccc(NCc2nnc(-c3ccncc3)[nH]2)c1 | > 10000 nM | 
Cn1c(CNc2cccc(C(=O)NCc3nc(C4CC4)cs3)c2)nnc1-c1ccncn1 | 2600 nM | 
CC(C)n1nccc1CNC(=O)c1cccc(NCc2nnc(-c3ccncn3)n2C)c1 | > 10000 nM | 
Cn1c(CNc2cccc(C(=O)NCc3cccc(CN4CCOCC4)c3)c2)nnc1-c1ccncn1 | > 10000 nM | 
CC(C)Oc1ncccc1CNC(=O)c1cccc(NCc2nnc(-c3ccncn3)n2C)c1 | 2360 nM | 
COCc1cccc(CNC(=O)c2cccc(NCc3nnc(-c4ccncn4)n3C)c2)c1 | 2530 nM | 
CC(C)Cn1nccc1CNC(=O)c1cccc(NCc2nnc(-c3ccncn3)n2C)c1 | 2010 nM | 
